Experimental data reported in patent publication US20030170299A1, “Therapeutic methods for acute myeloid leukemia” (priority 2002, published 2003).
Where two headings read alike, the source gives them in different places.

Experiments:
[1] = system: KG-1 ascites tumor
Method: Effect of f-L-DOX treatment on the survival of SCID mice carrying KG-1 ascites tumor. SCID mice inoculated intraperitoneally with KG-1 cells that were treated with saline, free DOX, L-DOX or f-L-DOX, with or without co-injection of ATRA. Animal survival was recorded starting from the day of tumor cell inoculation.
The therapeutic efficacy of f-L-DOX in a human leukemia murine ascites xenograft model was further tested. Female CB.17 SCID (scid/scid, 18-22 g) mice were inoculated intraperitoneally with human AML KG-1 cells, which express FR-β, to generate ascites tumors. KG-1 cells (1×10^6) grown in folate-deficient RPMI1640 media supplemented with 20% FBS were injected into the mice intraperitoneally on day 0. […] Peritoneal exudate cells were collected by peritoneal lavage with 5 mL Hanks' balanced salt solution (HBSS), pelleted and resuspended in RPMI1640 media. […] The tumor cells were inoculated into 8 groups of 8 mice. Four of the groups received daily intraperitoneal injections of 10 mg/kg of ATRA on days 1 through 5. The following formulations were administered as intraperitoneal injections on days 1, 5, and 9 (in 50 μL): 1) saline, 2) free DOX (3 mg/kg), 3) L-DOX (5 mg/kg), 4) f-L-DOX (5 mg/kg), 5) saline+ATRA, 6) free DOX+ATRA, 7) L-DOX+ATRA, and 8) f-L-DOX+ATRA. The body weight and survival of the animals were monitored daily during the course of the study.

[2] = system: L1210 cells; experiment: MTT cytotoxicity, L1210; format: cell-based, murine
Method: (§1) FR-targeted liposomal doxorubicin (f-L-DOX) was evaluated for in vitro cytotoxicity in both FR (+) and FR (−) leukemia cells using a standard cell survival assay (MTT assay). FR-targeted liposomal-doxorubicin (f-L-DOX) was prepared as described above. F-L-DOX in vitro cytotoxicity was evaluated in two FR (+) cell lines [KG-1, an FR-β (+) human AML cell line, and L1210JF, an FR (+) subline of L1210 murine acute lymphocytic leukemia cell line] and two FR (−) cell lines [KG-1a, an FR-β (−) subline of KG-1, and FR (−) L1210 cells] using the survival assay. The cells were treated in quadruplicate with serial dilutions of f-L-DOX, non-targeted control L-DOX, or free DOX. Cell viability was determined and IC50 values were calculated. For KG-1 and KG-1a cells, the MTT assay was repeated with cells cultured in media containing 1 μM ATRA for 5-days.

[3] = system: KG-1a cells; experiment: MTT cytotoxicity, KG-1a; format: cell-based, human
Method: as §1

[4] = system: L1210JF cells; experiment: MTT cytotoxicity, L1210JF; format: cell-based, murine; conditions: no ATRA
Method: as §1

[5] = system: KG-1 cells; experiment: MTT cytotoxicity, KG-1; format: cell-based, human
Method: as §1

[6] = system: L1210JF ascites tumor; experiment: Survival of DBA/2 mice carrying L1210JF ascites tumor; format: in vivo, DBA/2J mice; conditions: i.p. on days 1, 5, 9; free DOX 3 mg/kg, L-DOX and f-L-DOX 5 mg/kg DOX
Method: The antileukemic therapeutic efficacy of f-L-DOX was evaluated in two FR (+) murine leukemia ascites tumor models. The first model consisted of DBA/2J mice with ascites tumors derived from intraperitoneally engrafted FR (+) murine lymphocytic leukemia L1210JF cells. Male mice (18-22 g, from Charles River, Wilmington, Mass.) were placed on a folate-deficient diet (AIN-93G from Dyets, Inc., PA) and for at least one week prior to leukemia cell inoculation. The mice, in groups of 8 animals, were injected intraperitoneally with 1×10^6 L1210JF cells on day 0. The animals then received three intraperitoneal injections (in 50 μL) of various drug formulations on days 1, 5, and 9. […] In the saline-treated group, no visible ascitic fluid began to develop until after one week.

[7] = system: CMLs; conditions: in vivo; cited from earlier work
[8] = system: acute promyelocytic leukemia (PML); conditions: PML patients; cited from earlier work
[9] = system: FR-β expression
[10] = system: FR-β expression; experiment: ATRA induction of FR-β in AML blasts from patient marrow (Western blot); format: cell-based, human; conditions: myeloid leukemia cells from patient bone marrow, in vitro, ATRA 1 μmol/L
Method: FIG. 5. ATRA induction of FR-β in AML blasts from patient marrow. Cells (1×10^6) were cultured and treated with or without ATRA (1 μmol/L) for 6 hours (A and B), 24 hours (C), or 5 days (D). The samples were obtained from separate patients with FAB-M2 (A and C) or FAB-M4 (B and D) type AML. Cell lysates were then examined by Western blot and the use of rabbit anti-FR-β- and AP conjugated antibodies.
In one study, FR-β expression was elevated up to 20-fold by ATRA in KG-1 myeloid leukemia cells in a dose-dependent and reversible manner in the absence of terminal differentiation or cell growth inhibition (FIG. 4). The retinoid-induced increase in FR-β expression occurred in these cells without causing terminal differentiation or growth inhibition of the cells. In addition, ATRA increased FR-β expression in vitro in myeloid leukemia cells from patient bone marrow (FIG. 5). ATRA-induction of FR-β occurred even though primary AML blast cells (M2 and M4 type AMLs) are known to be refractory to ATRA differentiation therapy. […] In addition, FR-β inducers can modulate FR-β expression in AML cells refractory to retinoid differentiation therapy.

[11] = system: KG-1 cells; experiment: Cellular uptake of calcein liposomes by flow cytometry, KG-1; format: cell-based, human; conditions: 6S-5MeTHF at 10 μM
Method: Folate-coated liposomes with the composition DSPC/Chol/folate-PEG-DSPE (60:40:0.1, m/m) and entrapping calcein, a membrane impermeable fluorescent dye, (f-L-calcein) were prepared, using a modification of the procedure described above. Non-targeted calcein-containing liposomes (L-calcein), with essentially the same composition, minus folate-PEG-DSPE, were used as a control. FR (+) cell lines, human KG-1, CHO-FR-β, and murine L1210JF, and the FR (−) cell lines KG-1a, CHO-K1 and L1210 were used. FR-β expression on the cells was determined by flow cytometry using a receptor-specific antibody. For liposome binding studies, the cells were treated in triplicate with f-L-calcein (folate-conjugated liposomes containing calcein) or free L-calcein at 20 μM in media. The cells were then washed 3× with cold PBS and examined by […] (FIG. 3).
Data on cellular uptake of calcein-containing liposomes in the FR (+) KG-1, L1210JF and CHO-FR-β cells, and FR (−) KG-1a, L1210 and CHO-K1 controls are summarized in Table 2 below.
In order to examine the potential effect of physiological folate on FR-mediated drug delivery in FR-β (+) cells, f-L-calcein uptake was measured in KG-1 cells in the presence of 0-10 μM 6S-5-methyltetrahydrofolate (6S-5MeTHF) using the same flow cytometry method as described above.

[12] = system: FR-β; conditions: cited from earlier work
[13] = system: FR-β (+) AML cells; experiment: [3H] folic acid binding to FR-β (+) AML cells; design: species or system human

SMILES: COc1cccc2c1C(=O)c1c(O)c3c(c(O)c1C2=O)C[C@@](O)(C(=O)CO)C[C@@H]3O[C@H]1C[C@H](N)[C@H](O)[C@H](C)O1 [Free DOX, doxorubicin]
- dose-limiting toxicity ([1]; mice, results not shown): > 3 mg/kg
- IC50 ([2]; L1210, FR (−), no ATRA, folate-free media): 0.91 µM
- IC50 ([2]; L1210, no ATRA, media containing 1 mM folic acid): 0.93 µM
- IC50 ([3]; FR (−), no ATRA, folate-free media): 0.61 µM
- IC50 ([3]; FR (−), pre-exposure to ATRA, folate-free media): 0.59 µM
- IC50 ([3]; no ATRA, media containing 1 mM folic acid): 0.63 µM
- IC50 ([3]; pre-exposure to ATRA, media containing 1 mM folic acid): 0.62 µM
- IC50 ([4]; FR-α (+), folate-free media): 0.86 µM
- IC50 ([4]; media containing 1 mM folic acid): 0.87 µM
- IC50 ([5]; KG-1, FR-β (+), no ATRA, folate-free media): 0.65 µM
- IC50 ([5]; KG-1, FR-β (+), pre-exposure to ATRA, folate-free media): 0.63 µM
- IC50 ([5]; KG-1, no ATRA, media containing 1 mM folic acid): 0.67 µM
- IC50 ([5]; KG-1, pre-exposure to ATRA, media containing 1 mM folic acid): 0.68 µM
- median survival time [6]: 28.5 days

SMILES: CS(=O)(=O)O.Cc1ccc(NC(=O)c2ccc(CN3CCN(C)CC3)cc2)cc1Nc1nccc(-c2cccnc2)n1 [Gleevec™]
- effective against CMLs [7]: 90%

SMILES: CC1=C(/C=C/C(C)=C/C=C/C(C)=C/C(=O)O)C(C)(C)CCC1 [ATRA, all-trans retinoic acid]
- survival ([1]; ATRA treatment in the absence of f-L-DOX or L-DOX): did not enhance survival
- Complete remission [8]: 72-95%
- FR-β expression ([9]; KG-1 cells, flow cytometry, 5-day exposure to ATRA (1 μM)): significant increase
- FR-β expression elevated ([9]; KG-1 myeloid leukemia cells, dose-dependent, reversible): up to 20 fold
- FR-β expression [10]: increased

SMILES: CN1c2c(nc(N)[nH]c2=O)NC[C@@H]1CNc1ccc(C(=O)N[C@@H](CCC(=O)O)C(=O)O)cc1 [6S-5MeTHF, 6S-5-methyltetrahydrofolate]
- inhibition of f-L-calcein uptake [11]: did not significantly inhibit
- affinity of FR-β lower than for folic acid [12]: ~35 ×

SMILES: Nc1nc2ncc(CNc3ccc(C(=O)N[C@@H](CCC(=O)O)C(=O)O)cc3)nc2c(=O)[nH]1 [folic acid]
- [3H] folic acid bound [13]: 0.72±0.13 pmoles per 10^6 cells
